This assay deals with T1, EcR-RXR (EcR-LgBiT / RXR-SmBiT) (Drosophila melanogaster, UniProt P34021).
T1 construct: full-length EcR with C-terminal LgBiT (pFC34K-EcR) and RXR with C-terminal SmBiT (pFC36K-RXR), expressed in HEK293T cells; heterodimer; probably human RXR-alpha
T1 sequence (P34021 1-878): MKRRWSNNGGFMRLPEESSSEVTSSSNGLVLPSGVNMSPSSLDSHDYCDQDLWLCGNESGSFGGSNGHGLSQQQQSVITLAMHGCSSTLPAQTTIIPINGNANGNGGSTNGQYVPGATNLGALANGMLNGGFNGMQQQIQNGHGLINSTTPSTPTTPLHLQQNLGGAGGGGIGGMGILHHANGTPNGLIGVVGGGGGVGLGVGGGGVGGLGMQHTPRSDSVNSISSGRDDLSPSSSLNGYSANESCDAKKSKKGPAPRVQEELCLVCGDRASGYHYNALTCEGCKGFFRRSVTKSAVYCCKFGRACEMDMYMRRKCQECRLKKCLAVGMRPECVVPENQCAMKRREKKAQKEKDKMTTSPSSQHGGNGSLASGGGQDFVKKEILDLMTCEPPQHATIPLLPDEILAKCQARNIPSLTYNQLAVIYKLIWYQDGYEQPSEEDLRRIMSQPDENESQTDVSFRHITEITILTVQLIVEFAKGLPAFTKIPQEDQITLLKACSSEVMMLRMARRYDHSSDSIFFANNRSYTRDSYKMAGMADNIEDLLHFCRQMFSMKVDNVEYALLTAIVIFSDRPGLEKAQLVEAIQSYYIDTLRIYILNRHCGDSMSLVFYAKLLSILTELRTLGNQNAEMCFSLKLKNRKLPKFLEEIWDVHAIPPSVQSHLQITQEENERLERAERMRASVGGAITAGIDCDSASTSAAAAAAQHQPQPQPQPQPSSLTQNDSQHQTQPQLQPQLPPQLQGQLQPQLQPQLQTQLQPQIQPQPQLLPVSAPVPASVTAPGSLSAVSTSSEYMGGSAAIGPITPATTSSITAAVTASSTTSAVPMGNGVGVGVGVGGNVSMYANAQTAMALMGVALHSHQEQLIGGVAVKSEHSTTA
T1 sequence (P19793 1-462 partner): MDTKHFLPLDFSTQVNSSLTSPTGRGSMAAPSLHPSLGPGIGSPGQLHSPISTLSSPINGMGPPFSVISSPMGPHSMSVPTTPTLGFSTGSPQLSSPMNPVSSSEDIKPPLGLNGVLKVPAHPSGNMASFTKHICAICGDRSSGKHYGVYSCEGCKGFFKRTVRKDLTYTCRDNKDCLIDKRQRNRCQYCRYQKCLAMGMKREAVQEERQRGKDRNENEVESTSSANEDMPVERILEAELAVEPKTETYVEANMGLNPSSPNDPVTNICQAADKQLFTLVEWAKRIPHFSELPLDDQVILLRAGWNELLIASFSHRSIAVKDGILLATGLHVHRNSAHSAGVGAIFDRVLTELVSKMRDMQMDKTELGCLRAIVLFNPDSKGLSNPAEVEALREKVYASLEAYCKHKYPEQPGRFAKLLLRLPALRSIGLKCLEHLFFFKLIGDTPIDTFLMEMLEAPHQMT
Nature of the assay: NanoBiT split-luciferase assay of ligand-induced EcR-RXR heterodimerization in live HEK293T cells. The format is cell-based.

SMILES strings stand for the structures. Like-named read-outs stand apart in the source and are kept apart here.

For orientation: EC50 means the concentration giving half of the maximal effect. As for `CC(C)(O)CC[C@@H](O)[C@](C)(O)[C@H]1CC[C@@]2(O)C3=CC(=O)[C@@H]4C[C@@H](O)[C@@H](O)C[C@]4(C)[C@H]3CC[C@]12C` [20E, 20-hydroxyecdysone], under “read-out: EC50”, the half-maximal effective concentration (EC50) stood at 2.2 µM.

`Cc1cc(C)cc(C(=O)N(NC(=O)c2ccc3c(c2C)CCCO3)C(C)(C)C)c1` [CF, chromafenozide] returned an EC50 of 4.76 µM.

For the origin of these results see article PMC8824665, “Rapid Assessment of Insect Steroid Hormone Entry Into Cultured Cells” (Frontiers in Physiology, 2022).
